Measured values as given in patent US4699910A, “N-(3-trifluoromethyl-phenyl)-N'-propargyl-piperazine and salts thereof useful as analgesics” (Boehringer Ingelheim KG, priority 1983, dated 1987).

Key:
Type in all cases: in vivo
[1] = Writhing test (analgesia)
Gait test (analgesia) = conditions: sc
Source text: Atkinson, D. C., and Cowan, A. J., Pharm. Pharmacol. 26, 727-728 (1974)

Rabbit's tooth pulp = Rabbit's tooth pulp test (analgesia); conditions: s.c.
Source text: 3. Rabbit's tooth pulp test
Hoffmeister, F., Arzneimittelf. 16 (supplement), 1968.

[2] = po, read-out: Writhing test ED50 p.o.
[3] = sc, read-out: Writhing test ED50 s.c.

| Compound | ED50 [1, 2] | ED50 [1, 3] | ED50 (Gait test (analgesia)) | Rabbit's tooth pulp test EDIV (Rabbit's tooth pulp) |
| --- | --- | --- | --- | --- |
| C#CCN1CCN(c2cccc(C(F)(F)F)c2)CC1.Cl [N-(3-Trifluoromethyl-phenyl)-N'-propargyl-piperazine hydrochloride] | 43 mg/kg | 5.3 mg/kg | 2.8 mg/kg | approx. 10 |
| Cc1c(N(C)CS(=O)(=O)O)c(=O)n(-c2ccccc2)n1C [Metamizole-sodium (Novalgin ®)] | 80 mg/kg | 25 mg/kg | 97 mg/kg | approx. 560 |
